Assay results taken from patent US11771708B2, “Pharmaceutical carriers capable of pH dependent reconstitution and methods for making and using same” (Greenwood Brands, LLC, priority 2020, dated 2023).

Test: carrier reorganization in simulated gastric fluid and aspirin partitioning (Examples 2 and 3)
Format: physicochemical
Experimental: 5 grams of the composition is added to a beaker equipped with a magnetic stirrer and 50 mL of simulated gastric fluid is added with stirring. […] To this material, a 1 N solution of sodium hydroxide is added slowly to bring the pH up to about pH 7 with stirring. Raising the pH to pH 7 gives rise to a change in the carrier in a high pH environment. To this material, a 1 N solution of hydrochloride acid is added slowly until the pH is lowered to the pH of the simulated gastric fluid. It is expected that the carrier will reorganize. […] Thus, a carrier comprising a sufficient amount of a fatty acid in a triglyceride is capable of reorganization and absorption of a BAI from the low pH fluid, here simulated gastric fluid. 5 grams of the composition is added to a beaker equipped with a magnetic stirrer and 50 mL of simulated gastric fluid is added with stirring. […] To this material, a 1 N solution of sodium hydroxide is added slowly to bring the pH up to about pH 7 with stirring showing the change in the carrier in a high pH environment and the release of aspirin into the high pH environment. To this material, a 1 N solution of hydrochloride acid is added slowly until the pH is lowered to the pH of the simulated gastric fluid. […]

CC(=O)Oc1ccccc1C(=O)O [aspirin]
aspirin partitioning between reorganized carrier and simulated gastric fluid (Example 2: 10 g powdered aspirin added after oleic acid/soybean oil carrier was cycled low pH - pH 7 - low pH): partitions between the reorganized carrier and the simulated gastric fluid | aspirin partitioning between reorganized carrier and simulated gastric fluid (Example 3: carrier (oleic acid/soybean oil) and aspirin 1:1, cycled low pH - pH 7 - low pH): partitions between the reorganized carrier and the simulated gastric fluid
